Data: patent US20230399313A1, “BIOLOGICAL ACTIVITIES OF 5-(2-(4-(4-FLUORO-2-METHYL-1H-INDOL-5-YLOXY)-6-METHOXYQUINOLIN-7-YLOXY)ETHYL)-5-AZASPIRO[2.4]-HEPTAN-7-OL CRYSTALLINE, PHOSPHORIC ACID SALT AND ITS ENANTIOMERS” (Advenchen Pharmaceuticals, LLC, priority 2022, published 2023)

How the values were obtained:
[1] = system: colon cancer cell line HT29; assay: Combination therapy MTT assay; type: cell-based, human
Description: (§1) Compound A-Xln combination therapy MTT assay results were investigated. 100 μl of cell suspension with a concentration of 5×10^4 cells/ml was added to each well of a 96-well plate, and place in a 37° C., 5% CO2 incubator. After 24 h, Compound A-Xln sample solution was added according to Table 13, 10 μl/well for double-duplicate wells. After 72 hours at 37° C. and 5% CO2 incubation, 20 μl of 5 mg/ml MTT solution was added to each well, then 100 µl/well of dissolving solution was added after 4 hours. The samples were put in an incubator, and a full-wavelength multifunctional enzyme label machine was used after dissolving. The OD value at 570 nm was measured.
(§2) Samples according to Table 14 were also tested for proliferation inhibitor of three colon cancer lines HT29, HCT116 and colo205 by Compound A-Xln, anti-colon cancer agent 5FU/O, and combination of Compound A-Xln and 5FU/O. The results are shown in FIGS. 15-17.

[2] = system: colon cancer cell line colo205; assay: Combination therapy MTT assay; type: cell-based, human
Description: as §1, §2

[3] = system: colon cancer cell line HCT116; assay: Combination therapy MTT assay; type: cell-based, human
Description: as §1, §2

SMMC-7721 = assay: In vitro MTT (proliferation) assay; type: cell-based; settings: Homo sapiens, Liver
HCT-116 = assay: In vitro MTT (proliferation) assay; type: cell-based; settings: Homo sapiens, Colon, read-out: IC50
Description: (§3) The inhibitions of Compound A-Xln, Compound A-P-Xln and two chiral isomers (Compound R-A, Compound S-A) to cancer cell lines are tested via in vitro MTT assay. Cancer cell lines are selected from PANC-1, NCI-H157, MDA-MB-231, Hela, PC-3, BEL7404, MKN45, Ishikawa, Saos-2, SKOV3, SW579 and HCT116 cell lines. The IC50 values are in the micromole scale.
(§4) In vitro MTT (proliferation) assay was performed with compound from above examples to give following inhibition results: […]

Hela = assay: In vitro MTT (proliferation) assay; type: cell-based; settings: Homo sapiens; Cervix, Hela; read-out: IC50
Description: as §3, §4

MDA-MB-231 = assay: In vitro MTT (proliferation) assay; type: cell-based; settings: Homo sapiens; Breast, MDA-MB-231; read-out: IC50
Description: as §3, §4

U937 = assay: In vitro MTT (proliferation) assay; type: cell-based; settings: Homo sapiens, U-937, Blood
Description: as §3, §4

SKOV3 = assay: In vitro MTT (proliferation) assay; type: cell-based; settings: Homo sapiens, SK-OV-3; Ovary, SKOV3; read-out: IC50
Description: as §3, §4

[4] = system: murine colorectal CT26 cell line; assay: Murine colorectal CT26 model, combination with anti-mouse PD-1 antibody; type: in vivo, mice; settings: for Mean tumor volume D0: D0 (first drug administration time, baseline); for Mean tumor volume D0 / Mean tumor volume D17 / T/C D17: CT26 mice
[5] = Stability of amorphous and crystalline form API at 60° C. (HPLC related substances); type: physicochemical
Description: The samples of amorphous and crystalline form API of Compound A were placed in clean containers and the environmental temperature was controlled at 60° C. The purity of amorphous (Compound A-Amp) and crystalline form (Compound A-Xln) of Compound A were tested at Day 0, Day 10 and Day 30. Samples of amorphous and crystalline form APIs were measured, and the appropriate amount of diluent was added to dissolve with sonication. The concentration was controlled at 0.2 mg/ml and the purification was determined by HPLC with UV detector at 230 nm. Results were listed in the table as follows and the fitted curve is in Drawing Sections as FIG. 6.

KDR(h) (VEGFr2) = KDR(h) (VEGFr2) (Homo sapiens, UniProt P35968); assay: Kinase inhibition; type: biochemical
Source text: […]. In vitro tyrosine kinase inhibition activities can be measured via commercial resources. Some of these tests can also be contracted with Eurofin or Reaction Biology for screening.
For the kinase inhibition tests, receptor tyrosine kinases are selected from FGFR1(h), FGFR2(h), FGFR3(h), Flt1(h) (VEGFr1), Flt4(h) (VEGFr3), KDR(h) (VEGFr2), Aurora-B, PDGFRα(h) and PDGFRβ(h). […]. […]

K562 = assay: In vitro MTT (proliferation) assay; type: cell-based; settings: Homo sapiens, Blood
SKBR3 = assay: In vitro MTT (proliferation) assay; type: cell-based; settings: Homo sapiens, SK-BR-3, Breast
[6] = system: breast cancer cell line MCF7; assay: Combination therapy MTT assay; type: cell-based, human; settings: MCF7, combined with aromatase inhibitors Anatrozole and Letrozole, 72 h
Description: as §1

[7] = system: breast cancer cell line BT474; assay: Combination therapy MTT assay; type: cell-based, human; settings: BT474, combined with aromatase inhibitors Anatrozole and Letrozole, 72 h
Description: as §1

[8] = high temperature 60° C., 10 days
[9] = high temperature 60° C., 30 days

Sequence of KDR(h) (VEGFr2) (P35968 20-1356): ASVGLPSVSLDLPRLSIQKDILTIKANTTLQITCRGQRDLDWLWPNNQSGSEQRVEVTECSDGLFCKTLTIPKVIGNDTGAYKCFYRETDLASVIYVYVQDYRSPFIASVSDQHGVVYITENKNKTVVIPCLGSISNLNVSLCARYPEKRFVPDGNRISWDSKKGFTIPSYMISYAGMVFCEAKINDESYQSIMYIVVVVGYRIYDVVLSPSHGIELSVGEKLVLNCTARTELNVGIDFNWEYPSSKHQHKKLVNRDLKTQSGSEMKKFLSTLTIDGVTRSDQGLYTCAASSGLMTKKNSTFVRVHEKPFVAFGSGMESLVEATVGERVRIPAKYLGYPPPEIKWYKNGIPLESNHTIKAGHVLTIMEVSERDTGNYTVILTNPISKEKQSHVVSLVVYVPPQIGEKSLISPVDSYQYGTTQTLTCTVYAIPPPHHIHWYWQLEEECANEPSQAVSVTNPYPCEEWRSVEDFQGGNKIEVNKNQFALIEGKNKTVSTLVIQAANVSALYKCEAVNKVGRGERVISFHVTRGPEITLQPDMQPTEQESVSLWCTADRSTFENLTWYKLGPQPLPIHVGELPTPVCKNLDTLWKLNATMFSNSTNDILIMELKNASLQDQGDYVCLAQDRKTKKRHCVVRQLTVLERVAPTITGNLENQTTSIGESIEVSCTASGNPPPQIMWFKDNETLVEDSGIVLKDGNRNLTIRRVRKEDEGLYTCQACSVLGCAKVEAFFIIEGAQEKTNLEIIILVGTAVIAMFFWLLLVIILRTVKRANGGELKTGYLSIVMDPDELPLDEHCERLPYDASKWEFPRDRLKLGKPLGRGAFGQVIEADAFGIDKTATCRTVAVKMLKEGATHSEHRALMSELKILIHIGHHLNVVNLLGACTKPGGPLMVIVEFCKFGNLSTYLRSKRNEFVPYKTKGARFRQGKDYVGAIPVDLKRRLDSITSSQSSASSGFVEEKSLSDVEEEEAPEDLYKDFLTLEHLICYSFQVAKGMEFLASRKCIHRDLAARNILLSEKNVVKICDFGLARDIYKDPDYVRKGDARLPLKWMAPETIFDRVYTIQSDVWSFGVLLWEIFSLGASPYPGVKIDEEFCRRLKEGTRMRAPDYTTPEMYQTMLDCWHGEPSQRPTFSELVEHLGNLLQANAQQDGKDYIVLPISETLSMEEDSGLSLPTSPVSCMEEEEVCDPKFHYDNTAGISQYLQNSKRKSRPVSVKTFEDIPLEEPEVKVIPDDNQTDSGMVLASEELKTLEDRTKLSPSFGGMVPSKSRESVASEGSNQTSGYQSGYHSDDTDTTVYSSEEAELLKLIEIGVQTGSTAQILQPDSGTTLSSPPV

COc1cc2c(Oc3ccc4[nH]c(C)cc4c3F)ccnc2cc1OCCN1CC(O)C2(CC2)C1 (stereo not shown) [Compound A-Xln, 5-(2-(4-(4-fluoro-2-methyl-1H-indol-5-yloxy)-6-methoxyquinolin-7-yloxy)ethyl)-5-azaspiro[2.4]-heptan-7-ol]
Inhibition activity in sequential dosing ([1]; HT29, Compound A-Xln and 5FU/O dosed Day 1/Day 2 in either order): higher activity on regimen of dosing chemotherapy agents first followed by dosing Compound A later | Proliferation inhibition in combination ([1]; HT29, combined with 5FU/O): increased | Inhibition activity in sequential dosing ([2]; colo205, Compound A-Xln and 5FU/O dosed Day 1/Day 2 in either order): higher activity on regimen of dosing chemotherapy agents first followed by dosing Compound A later | Proliferation inhibition in combination ([2]; colo205, combined with 5FU/O): increased | Inhibition activity in sequential dosing ([3]; HCT116, Compound A-Xln and 5FU/O dosed Day 1/Day 2 in either order): higher activity on regimen of dosing chemotherapy agents first followed by dosing Compound A later | Proliferation inhibition in combination ([3]; HCT116, combined with 5FU/O): increased | IC50 (SMMC-7721): 8.01 ± 2.53 µM | IC50 (HCT-116): 11.7 ± 3.69 µM | IC50 (Hela): 11.2 ± 2.71 µM | IC50 (MDA-MB-231): 7.77 ± 0.02 µM | IC50 (U937): 10 ± 2.28 µM | IC50 (SKOV3): 17.1 ± 0.55 µM | Mean tumor volume D0 ([4]; 5 mg/kg/Qd i.g.): 127.8 mm^3 | Mean tumor volume D17 ([4]; 5 mg/kg/Qd i.g.): 1625.3 mm^3 | T/C D17 ([4]; 5 mg/kg/Qd i.g.): 72.04% | Mean tumor volume D0 ([4]; 15 mg/kg/Qd i.g.): 128.5 mm^3 | Mean tumor volume D17 ([4]; 15 mg/kg/Qd i.g.): 829.0 mm^3 | T/C D17 ([4]; 15 mg/kg/Qd i.g.): 36.67% | Efficacy of combination treatment with an anti-PD1 antibody agent ([4]; CT26 model, Compound A-Xln once daily plus anti-mouse PD-1 200 μg/mouse every 3 days): increased efficacy | Maximum impurities (%) ([5]; 0 day): 0.032% | Total impurities (%) ([5]; 0 day): 0.078% | Stability compared with the amorphous form ([5]; 60° C., up to 30 days): better stability than A-Amp | Maximum impurities (%) [5, 8]: 0.039% | Total impurities (%) [5, 8]: 0.115% | Maximum impurities (%) [5, 9]: 0.063% | Total impurities (%) [5, 9]: 0.194% | IC50 (KDR(h) (VEGFr2)): 0.015 µM | IC50 (K562): 6.37 ± 2.56 µM | IC50 (SKBR3): 12.2 ± 2 µM | Proliferation inhibition in combination [6]: increased | Proliferation inhibition in combination [7]: increased
